Test results reported in the supplement of paper PMC10307832.

Assays:
Assay in all cases: relative viability (nuclei count vs DMSO), 5 days (fraction); higher = more cells survive
[1] = test system: NCI-H2228
Summary of the method: (§1)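 Values are medians from duplicate plates. Each reflects relative viability, defined as the nuclei count of treated wells over that of vehicle wells. Lung cancer cell lines in 1536-well plates were pin-tool dosed one day after seeding with one drug alone or with a fixed anchor-drug dose plus five library-drug doses (not always all listed) in √10 steps, then fixed, stained and imaged at 4× after 5 days.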

[2] = test system: COR-L23
Summary of the method: as §1

[3] = test system: NCI-H23
Summary of the method: as §1

[4] = test system: EMC-BAC-2
Summary of the method: as §1

[5] = test system: HCC-78
Summary of the method: as §1

[6] = test system: ABC-1
Summary of the method: as §1

[7] = test system: LC-2-ad
Summary of the method: as §1

[8] = test system: NCI-H358
Summary of the method: as §1

[9] = test system: NCI-H1793
Summary of the method: as §1

[10] = test system: NCI-H2405
Summary of the method: as §1

[11] = test system: NCI-H1395
Summary of the method: as §1

[12] = test system: NCI-H2023
Summary of the method: as §1

[13] = test system: ChaGo-K-1
Summary of the method: as §1

[14] = test system: NCI-H1944
Summary of the method: as §1

[15] = test system: HCC-15
Summary of the method: as §1

[16] = test system: SK-LU-1
Summary of the method: as §1

[17] = test system: NCI-H838
Summary of the method: as §1

[18] = test system: HOP-62
Summary of the method: as §1

[19] = test system: HCC-366
Summary of the method: as §1

[20] = test system: NCI-H2126
Summary of the method: as §1

[21] = test system: HARA
Summary of the method: as §1

[22] = test system: NCI-H1993
Summary of the method: as §1

## Cc1sc2c(c1C)C(c1ccc(Cl)cc1)=N[C@@H](CC(=O)OC(C)(C)C)c1nnc(C)n1-2 [JQ1] + O=C(CCCCCCC(=O)Nc1ccccc1)NO [Vorinostat] (partner 1 µM)
[1]; first compound 0.04 µM
  relative viability: 0.605
[1]; first compound 0.1265 µM
  relative viability: 0.826
[1]; first compound 0.4 µM
  relative viability: 0.377
[1]; first compound 1.265 µM
  relative viability: 0.316
[1]; first compound 4 µM
  relative viability: 0.168
[2]; first compound 0.04 µM
  relative viability: 0.516
[2]; first compound 0.1265 µM
  relative viability: 0.327
[2]; first compound 0.4 µM
  relative viability: 0.401
[2]; first compound 1.265 µM
  relative viability: 0.269
[2]; first compound 4 µM
  relative viability: 0.207
[3]; first compound 0.04 µM
  relative viability: 0.547
[3]; first compound 0.1265 µM
  relative viability: 0.586
[3]; first compound 0.4 µM
  relative viability: 0.44
[3]; first compound 1.265 µM
  relative viability: 0.168
[3]; first compound 4 µM
  relative viability: 0.141
[4]; first compound 0.04 µM
  relative viability: 0.423
[4]; first compound 0.4 µM
  relative viability: 0.367
[4]; first compound 1.265 µM
  relative viability: 0.281
[4]; first compound 4 µM
  relative viability: 0.237
[5]; first compound 0.04 µM
  relative viability: 0.436
[5]; first compound 0.1265 µM
  relative viability: 0.398
[5]; first compound 0.4 µM
  relative viability: 0.466
[5]; first compound 1.265 µM
  relative viability: 0.312
[5]; first compound 4 µM
  relative viability: 0.329
[6]; first compound 0.04 µM
  relative viability: 0.963
[6]; first compound 0.1265 µM
  relative viability: 0.557
[6]; first compound 0.4 µM
  relative viability: 0.703
[6]; first compound 1.265 µM
  relative viability: 0.41
[6]; first compound 4 µM
  relative viability: 0.296
[7]; first compound 0.04 µM
  relative viability: 0.699
[7]; first compound 0.1265 µM
  relative viability: 0.396
[7]; first compound 0.4 µM
  relative viability: 0.624
[7]; first compound 1.265 µM
  relative viability: 0.273
[7]; first compound 4 µM
  relative viability: 0.3
[8]; first compound 0.04 µM
  relative viability: 0.662
[8]; first compound 0.1265 µM
  relative viability: 0.628
[8]; first compound 0.4 µM
  relative viability: 0.533
[8]; first compound 1.265 µM
  relative viability: 0.161
[8]; first compound 4 µM
  relative viability: 0.134
[9]; first compound 0.04 µM
  relative viability: 0.722
[9]; first compound 0.1265 µM
  relative viability: 0.853
[9]; first compound 0.4 µM
  relative viability: 0.664
[9]; first compound 1.265 µM
  relative viability: 0.548
[9]; first compound 4 µM
  relative viability: 0.508
[10]; first compound 0.04 µM
  relative viability: 1.03
[10]; first compound 0.4 µM
  relative viability: 0.79
[10]; first compound 1.265 µM
  relative viability: 0.413
[10]; first compound 4 µM
  relative viability: 0.276
[11]; first compound 0.04 µM
  relative viability: 0.662
[11]; first compound 0.1265 µM
  relative viability: 0.619
[11]; first compound 0.4 µM
  relative viability: 0.694
[11]; first compound 1.265 µM
  relative viability: 0.479
[11]; first compound 4 µM
  relative viability: 0.473
[12]; first compound 0.04 µM
  relative viability: 0.6
[12]; first compound 0.1265 µM
  relative viability: 0.372
[12]; first compound 0.4 µM
  relative viability: 0.44
[12]; first compound 1.265 µM
  relative viability: 0.156
[12]; first compound 4 µM
  relative viability: 0.106
[13]; first compound 0.04 µM
  relative viability: 0.752
[13]; first compound 0.1265 µM
  relative viability: 0.57
[13]; first compound 0.4 µM
  relative viability: 0.639
[13]; first compound 1.265 µM
  relative viability: 0.505
[13]; first compound 4 µM
  relative viability: 0.491
[14]; first compound 0.04 µM
  relative viability: 0.524
[14]; first compound 0.1265 µM
  relative viability: 0.405
[14]; first compound 0.4 µM
  relative viability: 0.325
[14]; first compound 1.265 µM
  relative viability: 0.323
[14]; first compound 4 µM
  relative viability: 0.29
[15]; first compound 0.04 µM
  relative viability: 0.804
[15]; first compound 0.1265 µM
  relative viability: 0.705
[15]; first compound 0.4 µM
  relative viability: 0.7
[15]; first compound 1.265 µM
  relative viability: 0.424
[15]; first compound 4 µM
  relative viability: 0.271
[16]; first compound 0.04 µM
  relative viability: 0.797
[16]; first compound 0.1265 µM
  relative viability: 0.688
[16]; first compound 0.4 µM
  relative viability: 0.676
[16]; first compound 1.265 µM
  relative viability: 0.477
[16]; first compound 4 µM
  relative viability: 0.289
[17]; first compound 0.04 µM
  relative viability: 0.703
[17]; first compound 0.1265 µM
  relative viability: 0.322
[17]; first compound 0.4 µM
  relative viability: 0.488
[17]; first compound 1.265 µM
  relative viability: 0.277
[17]; first compound 4 µM
  relative viability: 0.319
[18]; first compound 0.04 µM
  relative viability: 0.641
[18]; first compound 0.1265 µM
  relative viability: 0.553
[18]; first compound 0.4 µM
  relative viability: 0.305
[18]; first compound 1.265 µM
  relative viability: 0.12
[18]; first compound 4 µM
  relative viability: 0.0858
[19]; first compound 0.04 µM
  relative viability: 0.409
[19]; first compound 0.4 µM
  relative viability: 0.138
[19]; first compound 1.265 µM
  relative viability: 0.0461
[19]; first compound 4 µM
  relative viability: 0.042
[20]; first compound 0.04 µM
  relative viability: 0.725
[20]; first compound 0.1265 µM
  relative viability: 0.767
[20]; first compound 0.4 µM
  relative viability: 0.583
[20]; first compound 1.265 µM
  relative viability: 0.382
[20]; first compound 4 µM
  relative viability: 0.346
[21]; first compound 0.04 µM
  relative viability: 0.464
[21]; first compound 0.1265 µM
  relative viability: 0.514
[21]; first compound 0.4 µM
  relative viability: 0.396
[21]; first compound 1.265 µM
  relative viability: 0.347
[21]; first compound 4 µM
  relative viability: 0.301
[22]; first compound 0.04 µM
  relative viability: 0.851
[22]; first compound 0.1265 µM
  relative viability: 0.785
[22]; first compound 0.4 µM
  relative viability: 0.613
[22]; first compound 1.265 µM
  relative viability: 0.388
[22]; first compound 4 µM
  relative viability: 0.362
